Tested on: Male Syrian hamsters, feed enriched with 0.35% cholesterol
Experiment: Hypocholesterolemic activity of carob fiber and statins in vivo
Design: species or system Syrian hamster
Conditions: 28 days, in feed: carob fiber 2.5%, simvastatin 1.5 mg %
Description: Determination of the Hypocholesterolemic Activity of Carob Fiber and Statins In Vivo Hamsters are seen as a suitable animal model for propounding the present invention, even if the metabolic processes in hamsters and humans differ slightly. At all events, the two substances tested here in combination each give alone in humans a reducing effect on the serum cholesterol values, in particular on LDL cholesterol. The effect of a combined administration of carob fiber and a statin, here simvastatin, in this model should therefore also give conclusions for humans. Male Syrian hamsters (100-120 g at the start of the study) received feed enriched with 0.35% cholesterol. […] The hamsters were divided into groups of 9 animals and treated with the test substances over a period of 28 days. After the animals were anesthetized, blood was obtained for determining the serum cholesterol values. The serum cholesterol contents were determined after obtaining the plasma from whole blood using a commercially obtained enzyme test kit. The total cholesterol content of the test groups thus determined were compared with the results of a control group which received no test substances.

CCC(C)(C)C(=O)O[C@H]1C[C@@H](C)C=C2C=C[C@H](C)[C@H](CC[C@@H]3C[C@@H](O)CC(=O)O3)[C@H]21 [Simvastatin, simvastatin]
Total cholesterol in blood serum (0.35% cholesterol feed, control 7.65): 6.50 mmol/L | Changes from the control in % (total serum cholesterol vs control group): 15%
